Data published in EP0393575B1, “Neoplasia treatment compositions containing antineoplastic agent and side-effect reducing protective agent” (priority 1989, dated 1990).
Like-named read-outs stand apart in the source and are kept apart here.

How the values were obtained:
normal BDF₁ mice [1] = tested on: normal BDF₁ mice
Description: The effect of carbetimer on acute adriamycin toxicity in normal BDF₁ mice was evaluated. Normal BDF₁ mice were treated with carbetimer alone at 1700 mg/kg i.p. with adriamycin alone at 21 mg/kg i.v. or the combination of the two drugs, carbetimer being given half an hour before adriamycin. […] Data are reported in Table I and depicted in Figure 1.

normal BDF₁ mice [2] = tested on: normal BDF₁ mice; remark: listed apart in the source
Description: The effect of carbetimer on sub-acute adriamycin toxicity in normal BDF₁ mice was evaluated. Normal BDF₁ mice were treated either with adriamycin alone at 21 mg/kg i.v. or with adriamycin at 21 mg/kg i.v. plus carbetimer 500 mg/kg i.v. given concurrently. […]

normal BDF₁ mice [3] = tested on: normal BDF₁ mice; remark: listed apart in the source
Description: (§1) The effect of carbetimer on sub-acute adriamycin toxicity in normal BDF₁ mice was evaluated. Normal BDF₁ mice were treated either with adriamycin alone at 21 mg/kg i.v. or with adriamycin at 21 mg/kg i.v. plus carbetimer 250 mg/kg i.v. given concurrently. […] Data are reported in Table III in absolute weights of animals and depicted in Figure 3 in terms of percent of original weights of the animals.

normal BDF₁ mice [4] = tested on: normal BDF₁ mice; remark: listed apart in the source
Description: as §1, with “125” for “250”, “IV” for “III”, “4” for “3”

MIA C51 cell line = test: Trial VI: survival of rats inoculated with tumor cells; type: in vivo; details: Adriamycin 10 mg/kg i.v. Day One Only
Description: Rats were inoculated with a million cells of MIA C51 cell line. Thereafter, animals were treated with saline control, carbetimer alone at 1700 mg/kg in days 1-5, or adriamycin at 10 mg/kg i.v., or adriamycin 10 mg/kg i.v. plus carbetimer at 1700 mg/kg i.p. Animals treated with the combination of carbetimer and adriamycin remained alive 40 days after treatment. The combination therapy provided greater tumor remission than carbetimer alone or adriamycin alone, indicating two drugs may act in an additive or synergistic manner to cure tumors in tumor-bearing rats. Data are reported in Table VI and depicted in Figure 6.

[5] = lethal dose of adriamycin alone, 21 mg/kg i.v.
[6] = Adriamycin alone 21 mg/kg i.v., Day 6

COc1cccc2c1C(=O)c1c(O)c3c(c(O)c1C2=O)C[C@@](O)(C(=O)CO)C[C@@H]3O[C@H]1C[C@H](N)[C@H](O)[C@H](C)O1 [Adriamycin, doxorubicin]
mortality (normal BDF₁ mice [1]; Adriamycin 21 mg/kg i.v., 7 days post-treatment): all dead | time to death from start of the therapy (normal BDF₁ mice [1]; [5]): ≤ 8 days | mortality (normal BDF₁ mice [2]; [6]): all dead | time to death from start of the therapy (normal BDF₁ mice [2]; [5]): ≤ 8 days | mortality (normal BDF₁ mice [3]; Adriamycin alone 21 mg/kb i.v., Day 6): all dead | time to death from start of the therapy (normal BDF₁ mice [3]; [5]): ≤ 8 days | mortality (normal BDF₁ mice [4]; [6]): all dead | time to death from start of the therapy (normal BDF₁ mice [4]; [5]): ≤ 10 days | % Rats Alive After Treatment (MIA C51 cell line; Days 0-8): 100% | % Rats Alive After Treatment (MIA C51 cell line; Days 9-10): 100% | % Rats Alive After Treatment (MIA C51 cell line; Days 11-26): 100% | % Rats Alive After Treatment (MIA C51 cell line; Days 27-29): 80% | % Rats Alive After Treatment (MIA C51 cell line; Days 30-32): 0% | % Rats Alive After Treatment (MIA C51 cell line; Days 33-40): 0% | % Rats Alive After Treatment (MIA C51 cell line; Days 41-43): 0%
